Publication PMC2694132 (Cancer research, 2009)

Legend:
UGT1A9 = target: T1, UGT1A9 (Homo sapiens, UniProt O60656); assay: SAHA glucuronidation, UGT1A9-overexpressing HEK293 cell homogenate; assay type: in vitro ADME
T1 sequence (O60656 26-530): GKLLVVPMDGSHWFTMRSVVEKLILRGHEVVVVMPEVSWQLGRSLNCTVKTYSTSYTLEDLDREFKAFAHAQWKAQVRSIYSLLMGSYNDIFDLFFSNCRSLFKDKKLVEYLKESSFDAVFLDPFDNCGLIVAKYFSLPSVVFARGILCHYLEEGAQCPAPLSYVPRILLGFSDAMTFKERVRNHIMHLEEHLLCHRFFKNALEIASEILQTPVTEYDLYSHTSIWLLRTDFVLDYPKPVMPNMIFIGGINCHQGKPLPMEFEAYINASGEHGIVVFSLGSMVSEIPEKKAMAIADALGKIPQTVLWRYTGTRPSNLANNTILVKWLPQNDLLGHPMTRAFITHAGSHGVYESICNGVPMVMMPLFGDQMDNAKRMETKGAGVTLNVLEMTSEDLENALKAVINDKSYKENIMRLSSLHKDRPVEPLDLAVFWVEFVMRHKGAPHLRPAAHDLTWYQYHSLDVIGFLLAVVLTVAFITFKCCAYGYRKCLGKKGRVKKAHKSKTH

UGT1A3 = target: T2, UGT1A3 (Homo sapiens, UniProt P35503); assay: SAHA glucuronidation, UGT1A3-overexpressing HEK293 cell homogenate; assay type: in vitro ADME
T2 sequence (P35503 29-534): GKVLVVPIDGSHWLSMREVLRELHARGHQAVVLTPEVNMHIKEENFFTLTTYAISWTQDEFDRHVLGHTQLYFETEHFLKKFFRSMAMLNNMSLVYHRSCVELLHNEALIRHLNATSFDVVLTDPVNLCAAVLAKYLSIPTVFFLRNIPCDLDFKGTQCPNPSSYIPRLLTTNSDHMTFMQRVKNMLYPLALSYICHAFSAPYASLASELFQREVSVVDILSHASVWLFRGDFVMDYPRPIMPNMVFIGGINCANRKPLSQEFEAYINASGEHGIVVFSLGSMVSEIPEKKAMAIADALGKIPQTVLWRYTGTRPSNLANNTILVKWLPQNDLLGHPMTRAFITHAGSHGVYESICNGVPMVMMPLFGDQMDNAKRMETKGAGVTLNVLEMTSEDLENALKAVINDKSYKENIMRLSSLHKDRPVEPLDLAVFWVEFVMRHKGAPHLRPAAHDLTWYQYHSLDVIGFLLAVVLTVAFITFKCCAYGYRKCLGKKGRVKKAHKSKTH

UGT2B15 = target: T3, UGT2B15 (Homo sapiens, UniProt P54855); assay: SAHA glucuronidation screen, UGT2B15-overexpressing cell homogenate; assay type: in vitro ADME; details: 400 μg UGT-overexpressing cell homogenate, 1-h incubation
T3 sequence (P54855 24-530): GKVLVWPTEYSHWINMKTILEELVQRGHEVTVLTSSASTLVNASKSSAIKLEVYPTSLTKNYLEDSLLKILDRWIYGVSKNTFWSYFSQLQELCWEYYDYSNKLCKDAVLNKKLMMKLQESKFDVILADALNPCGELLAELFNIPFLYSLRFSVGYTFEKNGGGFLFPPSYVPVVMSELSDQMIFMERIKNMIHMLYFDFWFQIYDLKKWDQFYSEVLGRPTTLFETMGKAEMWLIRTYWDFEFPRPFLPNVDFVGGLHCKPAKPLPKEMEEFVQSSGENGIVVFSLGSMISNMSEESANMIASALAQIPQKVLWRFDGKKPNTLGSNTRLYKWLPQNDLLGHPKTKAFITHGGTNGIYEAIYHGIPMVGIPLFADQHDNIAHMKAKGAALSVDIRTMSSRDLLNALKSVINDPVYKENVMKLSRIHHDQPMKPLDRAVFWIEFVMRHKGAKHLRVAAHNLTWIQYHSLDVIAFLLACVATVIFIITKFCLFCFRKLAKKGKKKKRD

[1] = patients treated with SAHA; cited from earlier work
[2] = SAHA glucuronidation in human colon homogenate; assay type: in vitro ADME; details: 200 μg protein
in vitro = details: human, pH 7.5
UGT2B11 = target: T4, UGT2B11 (Homo sapiens, UniProt O75310); assay: SAHA glucuronidation screen, UGT2B11-overexpressing cell homogenate; assay type: in vitro ADME; details: 400 μg UGT-overexpressing cell homogenate, 1-h incubation
T4 sequence (O75310 22-529): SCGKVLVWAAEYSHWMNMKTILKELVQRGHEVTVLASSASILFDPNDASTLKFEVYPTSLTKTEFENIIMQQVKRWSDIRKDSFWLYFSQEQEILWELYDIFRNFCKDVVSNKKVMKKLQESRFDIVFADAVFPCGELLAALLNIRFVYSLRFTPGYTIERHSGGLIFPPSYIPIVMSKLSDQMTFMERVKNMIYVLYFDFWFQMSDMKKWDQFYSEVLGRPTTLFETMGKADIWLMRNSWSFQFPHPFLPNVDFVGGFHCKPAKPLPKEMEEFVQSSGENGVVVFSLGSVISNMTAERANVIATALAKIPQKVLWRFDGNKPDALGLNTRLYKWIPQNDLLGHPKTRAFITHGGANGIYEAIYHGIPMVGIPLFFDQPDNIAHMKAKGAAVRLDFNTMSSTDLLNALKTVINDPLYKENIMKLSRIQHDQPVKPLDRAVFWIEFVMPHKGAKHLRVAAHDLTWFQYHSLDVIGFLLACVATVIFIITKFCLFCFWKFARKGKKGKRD

UGT1A10 = target: T5, UGT1A10 (Homo sapiens, UniProt Q9HAW8); assay: SAHA glucuronidation, wild-type UGT1A10; assay type: in vitro ADME
T5 sequence (Q9HAW8 26-530): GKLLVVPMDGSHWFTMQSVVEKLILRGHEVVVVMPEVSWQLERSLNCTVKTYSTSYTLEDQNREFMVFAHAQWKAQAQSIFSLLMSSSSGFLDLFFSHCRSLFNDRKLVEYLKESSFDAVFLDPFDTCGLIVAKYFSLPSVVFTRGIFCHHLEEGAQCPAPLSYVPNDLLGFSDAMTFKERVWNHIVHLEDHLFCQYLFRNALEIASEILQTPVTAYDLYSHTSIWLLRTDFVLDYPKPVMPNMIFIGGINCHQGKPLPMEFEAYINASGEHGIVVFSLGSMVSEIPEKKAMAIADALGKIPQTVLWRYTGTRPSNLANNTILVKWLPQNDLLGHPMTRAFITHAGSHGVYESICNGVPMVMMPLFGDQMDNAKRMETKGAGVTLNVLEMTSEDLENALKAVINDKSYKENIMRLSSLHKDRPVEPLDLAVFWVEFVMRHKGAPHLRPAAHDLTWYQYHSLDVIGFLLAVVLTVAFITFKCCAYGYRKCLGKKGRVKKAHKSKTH

[3] = 400 μg UGT-overexpressing cell homogenate, 1-h incubation

With `O=C(CCCCCCC(=O)Nc1ccccc1)NO` [SAHA, Suberoylanilide hydroxamic acid] as the compound, how does the “glucuronidation against SAHA (screen)” value (UGT1A9; [3]) read?
The value was “high levels of glucuronidation”.

And the Km at 1 h (UGT1A9; human, UGT1A9-overexpressing HEK293 cell homogenate, pH 7.5)?
Its Km at 1 h is 1600 ± 500 µM.

And the “glucuronidation against SAHA (screen)” value (UGT1A3; [3])?
Its value is “high levels of glucuronidation”.

What about the Km at 1 h (UGT1A3; human, UGT1A3-overexpressing HEK293 cell homogenate, pH 7.5) of the same compound?
The Km at 1 h was 3400 ± 800 µM.

And the “glucuronidation activity against SAHA (screen)” value (UGT2B15)?
Its value is “No detectable glucuronidation activity”.

And the apparent terminal half-life [1]?
Its apparent terminal half-life is ~ 1.8 hours.

And the “glucuronidation activity against SAHA” value [2]?
The value was “significant levels of glucuronidation activity”.

And the Km (in vitro; human liver microsomes from UGT2B17 (*1/*1) subjects)?
The Km was 1200 µM.

What about the Km (in vitro; human liver microsomes from UGT2B17 (*2/*2) subjects) of the same compound?
Its Km is 2100 µM.

And the “glucuronidation activity against SAHA (screen)” value (UGT2B11)?
Its value is “No detectable glucuronidation activity”.

And the “glucuronidation against SAHA (screen)” value (UGT1A10; [3])?
Its value is “high levels of glucuronidation”.

What about the “KM of UGT1A10 higher than that observed for UGT2B17” value (UGT1A10; against SAHA) of the same compound?
The value was 3 fold.

What about the Km at 1 h (UGT1A10; human, pH 7.5) of the same compound?
The Km at 1 h was 1000 ± 100 µM.
